# Assay results as given in publication PMC6164588 (International Journal of Environmental Research and Public …, 2018).
# Like-named read-outs stand apart in the source and are kept apart here.
# Experiments:
# [1] = tested on: S. typhimurium TA97 strain; assay: Bacterial inhibition experiment, TA97 strain
# Protocol: (§1) Bacterial inhibition experiment is necessary according to the standard Ames bacterial mutagenicity assay. Safety and Technical Standards for Cosmetics require that the maximum chemical dose should be 5 mg/plate. […] The maximum concentration of both were 50 mg/mL, then diluted to 25 mg/mL, 10 mg/mL, 5 mg/mL, and 0.5 mg/mL. Plates were poured with LB medium, and 0.1 mL of the above solution and 0.1 mL of bacterial solution per dish were added.
# (§2) The criteria for determining the highest dose of the test substance are its toxicity to the bacteria and its solubility. A decrease in spontaneous reversion variables, a decrease in background bacteria, or a decrease in the number of bacteria in the culture being treated are signs of toxicity.
# (§3) For this, bacterial growth inhibition tests were designed and carried out.
# [2] = tested on: S. typhimurium TA100 strain; assay: Bacterial inhibition experiment, TA100 strain
# Protocol: as §1, §2, §3
# [3] = tested on: S. typhimurium TA102 strain; assay: Bacterial inhibition experiment, TA102 strain
# Protocol: as §1, §2, §3
# [4] = tested on: TA98 strain; conditions: concentrations of 300 μg/plate and 500 μg/plate; cited from earlier work
# [5] = tested on: TA100 strain; conditions: concentrations of 300 μg/plate and 500 μg/plate; cited from earlier work
# [6] = tested on: S. typhimurium TA98 strain; assay: Bacterial inhibition experiment, TA98 strain
# Protocol: as §1, §2, §3
# [7] = tested on: Salmonella typhimurium TA98 strain; assay: Ames assay (Salmonella typhimurium/reverse mutation assay), TA98 strain
# Source text: (§4) TA97, TA98, TA100, and TA102 were used as standard test strains. The strains were provided by Jiangsu Provincial Center for Disease Control and Prevention and Guizhou Medical University. TA97 and TA98 strains primarily detect the genotoxic substances of frameshift mutants, while TA100 and TA102 strains detect DNA as a mutagenic substance for base pair substitution. TA102 strain has a different specificity from the other Salmonella strains routinely used in mutagenicity screening. It detects a variety of oxidative mutagens and seems to be more sensitive to some aldehydes and some DNA damaging compounds, which are negative with other Salmonella strains.
# (§5) According to the standard Ames bacterial mutagenicity assay and Safety and Technical Standards for Cosmetics, the experiments were performed by the plate incorporation method with or without liver microsomal metabolic activation (S9) mixture. For the pure materials, the highest dose group was generally 5 mg/plate or 5 μL/plate. After the bacterial inhibition experiment, five dose groups (0.05, 0.5, 5, 50, 500 μg/plate) were determined for testing the chemicals. Three parallel plates were prepared for each dose. The chemicals (test chemicals or positive control drugs), the S9 system (with or without), and the S. typhimurium strains (TA97, TA98, TA100, TA102) were added to the nutrient mediums. The negative control (blank and solvent) groups and the positive control groups were also done with three parallel plates.
# (§6) The chemicals and concentrations were as follows: In the absence of the S9 system: Dexon 50 μg/plate for the TA97, TA98, and TA102 strains, and NaN3 1.5 μg/plate for the TA100 strain.
# (§7) Five concentrations for each chemical were tested for mutagenicity in the standard plate pre-incubation assay. The reported numbers of reverse mutation colonies per plate are mean values from triplicates obtained in one experiment. The experiment was repeated at two times.
# (§8) All the plates for the experiments were incubated under the same conditions: 37 ± 0.5 °C, 48 h, dark.
# (§9) The test series was set as 100%, 50%, 10%, 5%, and 0.5%. […] Then, 100 μL of the mixtures, which were at different doses, was added to each plate.
# (§10) The mutagenicity ratio (MR) is calculated as MR = x/x0(1) where x is the number of reverse mutation colonies on compound-treated plates and x0 is the number of reverse mutation colonies in the negative control group.
# (§11) When the mutagenicity ratio (MR) is ≥2 and the dose–response relationship and the background are normal, the mutagenesis is judged as positive.
# [8] = tested on: Salmonella typhimurium TA102 strain; assay: Ames assay (Salmonella typhimurium/reverse mutation assay), TA102 strain
# Source text: as §4, §5, §6, §7, §8, §9, §10, §11
# [9] = tested on: Salmonella typhimurium TA97 strain; assay: Ames assay (Salmonella typhimurium/reverse mutation assay), TA97 strain
# Source text: as §4, §5, §6, §7, §8, §9, §10, §11
# [10] = tested on: Salmonella typhimurium TA100 strain; conditions: for Mutation effect, TA100 strain: absence of S9
# Source text: as §4, §5, §6, §7, §8, §9, §10, §11
# [11] = dose 50 μg/plate, −S9, positive control
smiles,measurement,setting,value
"O=C(c1ccccc1)c1ccc(O)cc1O [BP-1, benzophenone-1]",Bacterial inhibition t-Test Result TA97,[1]; dose 50 μg/plate,−
same,Bacterial inhibition t-Test Result TA97,[1]; dose 500 μg/plate,+ (t-test (p < 0.05))
same,Bacterial inhibition t-Test Result TA97,[1]; dose 1000 μg/plate,+ (t-test (p < 0.05))
same,Bacterial inhibition t-Test Result TA97,[1]; dose 2500 μg/plate,++ (t-test (p < 0.01))
same,Bacterial inhibition t-Test Result TA97,[1]; dose 5000 μg/plate,++ (t-test (p < 0.01))
same,Bacterial inhibition t-Test Result TA100,[2]; dose 50 μg/plate,−
same,Bacterial inhibition t-Test Result TA100,[2]; dose 1000 μg/plate,+ (t-test (p < 0.05))
same,Bacterial inhibition t-Test Result TA100,[2]; dose 2500 μg/plate,++ (t-test (p < 0.01))
same,Bacterial inhibition t-Test Result TA100,[2]; dose 5000 μg/plate,++ (t-test (p < 0.01))
same,Bacterial inhibition t-Test Result TA102,[3]; dose 50 μg/plate,−
same,Bacterial inhibition t-Test Result TA102,[3]; dose 500 μg/plate,+ (t-test (p < 0.05))
same,Bacterial inhibition t-Test Result TA102,[3]; dose 1000 μg/plate,+ (t-test (p < 0.05))
same,Bacterial inhibition t-Test Result TA102,[3]; dose 2500 μg/plate,++ (t-test (p < 0.01))
same,Bacterial inhibition t-Test Result TA102,[3]; dose 5000 μg/plate,++ (t-test (p < 0.01))
same,"Mutagenicity, TA98 strain",[4],None of the compounds produced clear positive mutagenicity results
same,"Mutagenicity, TA100 strain",[5],None of the compounds produced clear positive mutagenicity results
same,Bacterial inhibition t-Test Result TA98,[6]; dose 50 μg/plate,−
same,Bacterial inhibition t-Test Result TA98,[6]; dose 500 μg/plate,+ (t-test (p < 0.05))
same,Bacterial inhibition t-Test Result TA98,[6]; dose 1000 μg/plate,+ (t-test (p < 0.05))
same,Bacterial inhibition t-Test Result TA98,[6]; dose 2500 μg/plate,++ (t-test (p < 0.01))
same,Bacterial inhibition t-Test Result TA98,[6]; dose 5000 μg/plate,++ (t-test (p < 0.01))
same,Reverse mutation colonies TA98 +S9,[7]; dose 0.05 μg/plate,51 ± 7 colonies per plate
same,Reverse mutation colonies TA98 −S9,"[7]; dose 0.05 μg/plate, −S9",43 ± 13 colonies per plate
same,Reverse mutation colonies TA98 +S9,[7]; dose 0.5 μg/plate,48 ± 2 colonies per plate
same,Reverse mutation colonies TA98 −S9,"[7]; dose 0.5 μg/plate, −S9",46 ± 8 colonies per plate
same,Reverse mutation colonies TA98 +S9,[7]; dose 5 μg/plate,52 ± 7 colonies per plate
same,Reverse mutation colonies TA98 −S9,"[7]; dose 5 μg/plate, −S9",33 ± 3 colonies per plate
same,Reverse mutation colonies TA98 +S9,[7]; dose 50 μg/plate,36 ± 1 colonies per plate
same,Reverse mutation colonies TA98 −S9,"[7]; dose 50 μg/plate, −S9",22 ± 9 colonies per plate
same,Reverse mutation colonies TA98 +S9,[7]; dose 500 μg/plate,23 ± 2 colonies per plate
same,Reverse mutation colonies TA98 −S9,"[7]; dose 500 μg/plate, −S9",0 ± 1 colonies per plate
same,"Mutagenicity result, TA98 strain",[7]; systems both with and without S9,not mutagenic
same,Reverse mutation colonies TA102 +S9,"[8]; dose 0.05 μg/plate, +S9",350 ± 11 colonies per plate
same,Reverse mutation colonies TA102 −S9,"[8]; dose 0.05 μg/plate, −S9",311 ± 12 colonies per plate
same,Reverse mutation colonies TA102 +S9,"[8]; dose 0.5 μg/plate, +S9",369 ± 10 colonies per plate
same,Reverse mutation colonies TA102 −S9,"[8]; dose 0.5 μg/plate, −S9",369 ± 18 colonies per plate
same,Reverse mutation colonies TA102 +S9,"[8]; dose 5 μg/plate, +S9",443 ± 8 colonies per plate
same,Reverse mutation colonies TA102 −S9,"[8]; dose 5 μg/plate, −S9",355 ± 20 colonies per plate
same,Reverse mutation colonies TA102 +S9,"[8]; dose 50 μg/plate, +S9",429 ± 8 colonies per plate
same,Reverse mutation colonies TA102 −S9,"[8]; dose 50 μg/plate, −S9",407 ± 16 colonies per plate
same,Reverse mutation colonies TA102 +S9,"[8]; dose 500 μg/plate, +S9",390 ± 10 colonies per plate
same,Reverse mutation colonies TA102 −S9,"[8]; dose 500 μg/plate, −S9",7 ± 4 colonies per plate
same,"Mutagenicity, TA102 strain",[8]; presence or absence of S9,not mutagenic
same,"Mutagenic activities, TA97 strain","[9]; +S9 system, doses from 0.05 μg/plate to 500 μg/plate",no mutagenic activities were detected
same,"Mutagenicity, TA97 strain","[9]; absence of S9, doses of 0.05 and 0.5 μg/plate",significant mutagenicity
same,Reverse mutation colonies TA97 +S9,[9]; dose 0.05 μg/plate,151 ± 8 colonies per plate
same,Mutagenicity ratio (MR) flag TA97 −S9,[9]; dose 0.05 μg/plate,* (MR ≥ 2 compared to control)
same,Reverse mutation colonies TA97 −S9,[9]; dose 0.05 μg/plate,925 ± 13 colonies per plate
same,Reverse mutation colonies TA97 +S9,[9]; dose 0.5 μg/plate,143 ± 10 colonies per plate
same,Mutagenicity ratio (MR) flag TA97 −S9,[9]; dose 0.5 μg/plate,* (MR ≥ 2 compared to control)
same,Reverse mutation colonies TA97 −S9,[9]; dose 0.5 μg/plate,697 ± 56 colonies per plate
same,Reverse mutation colonies TA97 +S9,[9]; dose 5 μg/plate,146 ± 10 colonies per plate
same,Reverse mutation colonies TA97 −S9,[9]; dose 5 μg/plate,185 ± 10 colonies per plate
same,Reverse mutation colonies TA97 +S9,[9]; dose 50 μg/plate,149 ± 11 colonies per plate
same,Reverse mutation colonies TA97 −S9,[9]; dose 50 μg/plate,83 ± 6 colonies per plate
same,Reverse mutation colonies TA97 +S9,[9]; dose 500 μg/plate,88 ± 20 colonies per plate
same,Reverse mutation colonies TA97 −S9,[9]; dose 500 μg/plate,6 ± 1 colonies per plate
same,"Mutation effect, TA100 strain",[10]; dose 0.5 μg/plate,significant mutation effect
same,"Mutation effect, TA100 strain","[10]; doses of 5, 50, and 500 μg/plate",no obvious mutations
same,Reverse mutation colonies TA100 +S9,[10]; dose 0.05 μg/plate,174 ± 13 colonies per plate
same,Reverse mutation colonies TA100 −S9,"[10]; dose 0.05 μg/plate, −S9",239 ± 17 colonies per plate
same,Reverse mutation colonies TA100 +S9,[10]; dose 0.5 μg/plate,193 ± 12 colonies per plate
same,Mutagenicity ratio (MR) flag TA100 −S9,"[10]; dose 0.5 μg/plate, −S9",* (MR ≥ 2 compared to control)
same,Reverse mutation colonies TA100 −S9,"[10]; dose 0.5 μg/plate, −S9",458 ± 29 colonies per plate
same,Reverse mutation colonies TA100 +S9,[10]; dose 5 μg/plate,191 ± 8 colonies per plate
same,Reverse mutation colonies TA100 −S9,"[10]; dose 5 μg/plate, −S9",153 ± 2 colonies per plate
same,Reverse mutation colonies TA100 +S9,[10]; dose 50 μg/plate,196 ± 4 colonies per plate
same,Reverse mutation colonies TA100 −S9,"[10]; dose 50 μg/plate, −S9",188 ± 15 colonies per plate
same,Reverse mutation colonies TA100 +S9,[10]; dose 500 μg/plate,122 ± 4 colonies per plate
same,Reverse mutation colonies TA100 −S9,"[10]; dose 500 μg/plate, −S9",181 ± 10 colonies per plate
"O=C1c2cccc(O)c2C(=O)c2c(O)cccc21 [Dantron, reference compound]",Reverse mutation colonies TA102 +S9,"[8]; dose 50 μg/plate, +S9",625 ± 71 colonies per plate
same,Mutagenicity ratio (MR) flag TA102 +S9,"[8]; dose 50 μg/plate, +S9, positive control",* (MR ≥ 2 compared to control)
"CN(C)c1ccc(N=NS(=O)(=O)[O-])cc1.[Na+] [Dexon, reference compound]",Reverse mutation colonies TA98 −S9,"[7]; dose 50 μg/plate, −S9",1065 ± 137 colonies per plate
same,Mutagenicity ratio (MR) flag TA98 −S9,[7]; [11],* (MR ≥ 2 compared to control)
same,Reverse mutation colonies TA102 −S9,"[8]; dose 50 μg/plate, −S9",586 ± 83 colonies per plate
same,Mutagenicity ratio (MR) flag TA102 −S9,[8]; [11],* (MR ≥ 2 compared to control)
same,Reverse mutation colonies TA97 −S9,[9]; dose 50 μg/plate,1987 ± 203 colonies per plate
same,Mutagenicity ratio (MR) flag TA97 −S9,"[9]; dose 50 μg/plate, positive control",* (MR ≥ 2 compared to control)
